Test results taken from US20260373164A1, “4(RS)-4-F4-NEUROPROSTANE DERIVATIVES (4-F4T-NEUROP) AND THEIR USE IN TREATING VENTILATOR INDUCED DIAPHRAGMATIC DYSFUNCTION AND OTHER DISEASES” (INSTITUT NATIONAL DE LA SANTÉ ET DE LA RECHERCHE MÉDICALE, priority 2022, published 2026).
“Also recorded” adds a separate entry of the source.

Key:
[1] = tested on: mouse diaphragm muscle fibers; experiment: Diaphragm muscle fibre atrophy (cross section area, fibre type) after 12 hours of mechanical ventilation in mice; type: in vivo; settings: 10 μM, 12 h MV
Experimental: FIG. 3: A. Force frequency relationship of mice diaphragm muscle, after 12 hours of mechanical ventilation, treated or not with 10 μM 4F4t-NeuroP. […] Representative immunostaining of fast and slow diaphragm muscle fibers in mouse. Antibodies against fast- and slow-type myosin ATPase were used to perform immunostaining on cryosections of mouse diaphragm. Muscle membrane was counterstained with dystrophin antibodies. The staining was performed in diaphragm muscle 12 h after MV with or without 4F4t-NeuroP. Average cross-section area was quantified in each condition including all fibre type (B.) or by discriminating slow versus fast fibres (C.). D. Average distribution of Fast versus Slow twitch fibres in each condition. (*p<0.05 vs control)
6 hours of MV remains a rather short time of ventilation which represents a particular interest to explore proximal pathophysiological mechanisms of VIDD. As previously reported, 6 hours of mechanical ventilation is able to induce force deficit without histological alterations. However, 12 hours of mechanical ventilation can induce muscle atrophy by a mechanism mediated by RyR1 dependent SR Ca^2+-leak. The inventors therefore tested here the beneficial effect of 4F4t-NeuroP after 12 hours of mechanical ventilation.

RyR2 = settings: cited from earlier work
RyR1 = target: T1, RyR1 (Mus musculus, UniProt E9PZQ0); experiment: Ca2+ sparks frequency in saponin skinned EDL muscle fibres of post myocardial infarction (PMI) mice; type: cell-based; settings: 1 μM 4F4t-NeuroP, acute incubation; EDL fibres from PMI mice
T1 construct: Fluo-4 Ca2+ sparks
T1 sequence (E9PZQ0 whole entry): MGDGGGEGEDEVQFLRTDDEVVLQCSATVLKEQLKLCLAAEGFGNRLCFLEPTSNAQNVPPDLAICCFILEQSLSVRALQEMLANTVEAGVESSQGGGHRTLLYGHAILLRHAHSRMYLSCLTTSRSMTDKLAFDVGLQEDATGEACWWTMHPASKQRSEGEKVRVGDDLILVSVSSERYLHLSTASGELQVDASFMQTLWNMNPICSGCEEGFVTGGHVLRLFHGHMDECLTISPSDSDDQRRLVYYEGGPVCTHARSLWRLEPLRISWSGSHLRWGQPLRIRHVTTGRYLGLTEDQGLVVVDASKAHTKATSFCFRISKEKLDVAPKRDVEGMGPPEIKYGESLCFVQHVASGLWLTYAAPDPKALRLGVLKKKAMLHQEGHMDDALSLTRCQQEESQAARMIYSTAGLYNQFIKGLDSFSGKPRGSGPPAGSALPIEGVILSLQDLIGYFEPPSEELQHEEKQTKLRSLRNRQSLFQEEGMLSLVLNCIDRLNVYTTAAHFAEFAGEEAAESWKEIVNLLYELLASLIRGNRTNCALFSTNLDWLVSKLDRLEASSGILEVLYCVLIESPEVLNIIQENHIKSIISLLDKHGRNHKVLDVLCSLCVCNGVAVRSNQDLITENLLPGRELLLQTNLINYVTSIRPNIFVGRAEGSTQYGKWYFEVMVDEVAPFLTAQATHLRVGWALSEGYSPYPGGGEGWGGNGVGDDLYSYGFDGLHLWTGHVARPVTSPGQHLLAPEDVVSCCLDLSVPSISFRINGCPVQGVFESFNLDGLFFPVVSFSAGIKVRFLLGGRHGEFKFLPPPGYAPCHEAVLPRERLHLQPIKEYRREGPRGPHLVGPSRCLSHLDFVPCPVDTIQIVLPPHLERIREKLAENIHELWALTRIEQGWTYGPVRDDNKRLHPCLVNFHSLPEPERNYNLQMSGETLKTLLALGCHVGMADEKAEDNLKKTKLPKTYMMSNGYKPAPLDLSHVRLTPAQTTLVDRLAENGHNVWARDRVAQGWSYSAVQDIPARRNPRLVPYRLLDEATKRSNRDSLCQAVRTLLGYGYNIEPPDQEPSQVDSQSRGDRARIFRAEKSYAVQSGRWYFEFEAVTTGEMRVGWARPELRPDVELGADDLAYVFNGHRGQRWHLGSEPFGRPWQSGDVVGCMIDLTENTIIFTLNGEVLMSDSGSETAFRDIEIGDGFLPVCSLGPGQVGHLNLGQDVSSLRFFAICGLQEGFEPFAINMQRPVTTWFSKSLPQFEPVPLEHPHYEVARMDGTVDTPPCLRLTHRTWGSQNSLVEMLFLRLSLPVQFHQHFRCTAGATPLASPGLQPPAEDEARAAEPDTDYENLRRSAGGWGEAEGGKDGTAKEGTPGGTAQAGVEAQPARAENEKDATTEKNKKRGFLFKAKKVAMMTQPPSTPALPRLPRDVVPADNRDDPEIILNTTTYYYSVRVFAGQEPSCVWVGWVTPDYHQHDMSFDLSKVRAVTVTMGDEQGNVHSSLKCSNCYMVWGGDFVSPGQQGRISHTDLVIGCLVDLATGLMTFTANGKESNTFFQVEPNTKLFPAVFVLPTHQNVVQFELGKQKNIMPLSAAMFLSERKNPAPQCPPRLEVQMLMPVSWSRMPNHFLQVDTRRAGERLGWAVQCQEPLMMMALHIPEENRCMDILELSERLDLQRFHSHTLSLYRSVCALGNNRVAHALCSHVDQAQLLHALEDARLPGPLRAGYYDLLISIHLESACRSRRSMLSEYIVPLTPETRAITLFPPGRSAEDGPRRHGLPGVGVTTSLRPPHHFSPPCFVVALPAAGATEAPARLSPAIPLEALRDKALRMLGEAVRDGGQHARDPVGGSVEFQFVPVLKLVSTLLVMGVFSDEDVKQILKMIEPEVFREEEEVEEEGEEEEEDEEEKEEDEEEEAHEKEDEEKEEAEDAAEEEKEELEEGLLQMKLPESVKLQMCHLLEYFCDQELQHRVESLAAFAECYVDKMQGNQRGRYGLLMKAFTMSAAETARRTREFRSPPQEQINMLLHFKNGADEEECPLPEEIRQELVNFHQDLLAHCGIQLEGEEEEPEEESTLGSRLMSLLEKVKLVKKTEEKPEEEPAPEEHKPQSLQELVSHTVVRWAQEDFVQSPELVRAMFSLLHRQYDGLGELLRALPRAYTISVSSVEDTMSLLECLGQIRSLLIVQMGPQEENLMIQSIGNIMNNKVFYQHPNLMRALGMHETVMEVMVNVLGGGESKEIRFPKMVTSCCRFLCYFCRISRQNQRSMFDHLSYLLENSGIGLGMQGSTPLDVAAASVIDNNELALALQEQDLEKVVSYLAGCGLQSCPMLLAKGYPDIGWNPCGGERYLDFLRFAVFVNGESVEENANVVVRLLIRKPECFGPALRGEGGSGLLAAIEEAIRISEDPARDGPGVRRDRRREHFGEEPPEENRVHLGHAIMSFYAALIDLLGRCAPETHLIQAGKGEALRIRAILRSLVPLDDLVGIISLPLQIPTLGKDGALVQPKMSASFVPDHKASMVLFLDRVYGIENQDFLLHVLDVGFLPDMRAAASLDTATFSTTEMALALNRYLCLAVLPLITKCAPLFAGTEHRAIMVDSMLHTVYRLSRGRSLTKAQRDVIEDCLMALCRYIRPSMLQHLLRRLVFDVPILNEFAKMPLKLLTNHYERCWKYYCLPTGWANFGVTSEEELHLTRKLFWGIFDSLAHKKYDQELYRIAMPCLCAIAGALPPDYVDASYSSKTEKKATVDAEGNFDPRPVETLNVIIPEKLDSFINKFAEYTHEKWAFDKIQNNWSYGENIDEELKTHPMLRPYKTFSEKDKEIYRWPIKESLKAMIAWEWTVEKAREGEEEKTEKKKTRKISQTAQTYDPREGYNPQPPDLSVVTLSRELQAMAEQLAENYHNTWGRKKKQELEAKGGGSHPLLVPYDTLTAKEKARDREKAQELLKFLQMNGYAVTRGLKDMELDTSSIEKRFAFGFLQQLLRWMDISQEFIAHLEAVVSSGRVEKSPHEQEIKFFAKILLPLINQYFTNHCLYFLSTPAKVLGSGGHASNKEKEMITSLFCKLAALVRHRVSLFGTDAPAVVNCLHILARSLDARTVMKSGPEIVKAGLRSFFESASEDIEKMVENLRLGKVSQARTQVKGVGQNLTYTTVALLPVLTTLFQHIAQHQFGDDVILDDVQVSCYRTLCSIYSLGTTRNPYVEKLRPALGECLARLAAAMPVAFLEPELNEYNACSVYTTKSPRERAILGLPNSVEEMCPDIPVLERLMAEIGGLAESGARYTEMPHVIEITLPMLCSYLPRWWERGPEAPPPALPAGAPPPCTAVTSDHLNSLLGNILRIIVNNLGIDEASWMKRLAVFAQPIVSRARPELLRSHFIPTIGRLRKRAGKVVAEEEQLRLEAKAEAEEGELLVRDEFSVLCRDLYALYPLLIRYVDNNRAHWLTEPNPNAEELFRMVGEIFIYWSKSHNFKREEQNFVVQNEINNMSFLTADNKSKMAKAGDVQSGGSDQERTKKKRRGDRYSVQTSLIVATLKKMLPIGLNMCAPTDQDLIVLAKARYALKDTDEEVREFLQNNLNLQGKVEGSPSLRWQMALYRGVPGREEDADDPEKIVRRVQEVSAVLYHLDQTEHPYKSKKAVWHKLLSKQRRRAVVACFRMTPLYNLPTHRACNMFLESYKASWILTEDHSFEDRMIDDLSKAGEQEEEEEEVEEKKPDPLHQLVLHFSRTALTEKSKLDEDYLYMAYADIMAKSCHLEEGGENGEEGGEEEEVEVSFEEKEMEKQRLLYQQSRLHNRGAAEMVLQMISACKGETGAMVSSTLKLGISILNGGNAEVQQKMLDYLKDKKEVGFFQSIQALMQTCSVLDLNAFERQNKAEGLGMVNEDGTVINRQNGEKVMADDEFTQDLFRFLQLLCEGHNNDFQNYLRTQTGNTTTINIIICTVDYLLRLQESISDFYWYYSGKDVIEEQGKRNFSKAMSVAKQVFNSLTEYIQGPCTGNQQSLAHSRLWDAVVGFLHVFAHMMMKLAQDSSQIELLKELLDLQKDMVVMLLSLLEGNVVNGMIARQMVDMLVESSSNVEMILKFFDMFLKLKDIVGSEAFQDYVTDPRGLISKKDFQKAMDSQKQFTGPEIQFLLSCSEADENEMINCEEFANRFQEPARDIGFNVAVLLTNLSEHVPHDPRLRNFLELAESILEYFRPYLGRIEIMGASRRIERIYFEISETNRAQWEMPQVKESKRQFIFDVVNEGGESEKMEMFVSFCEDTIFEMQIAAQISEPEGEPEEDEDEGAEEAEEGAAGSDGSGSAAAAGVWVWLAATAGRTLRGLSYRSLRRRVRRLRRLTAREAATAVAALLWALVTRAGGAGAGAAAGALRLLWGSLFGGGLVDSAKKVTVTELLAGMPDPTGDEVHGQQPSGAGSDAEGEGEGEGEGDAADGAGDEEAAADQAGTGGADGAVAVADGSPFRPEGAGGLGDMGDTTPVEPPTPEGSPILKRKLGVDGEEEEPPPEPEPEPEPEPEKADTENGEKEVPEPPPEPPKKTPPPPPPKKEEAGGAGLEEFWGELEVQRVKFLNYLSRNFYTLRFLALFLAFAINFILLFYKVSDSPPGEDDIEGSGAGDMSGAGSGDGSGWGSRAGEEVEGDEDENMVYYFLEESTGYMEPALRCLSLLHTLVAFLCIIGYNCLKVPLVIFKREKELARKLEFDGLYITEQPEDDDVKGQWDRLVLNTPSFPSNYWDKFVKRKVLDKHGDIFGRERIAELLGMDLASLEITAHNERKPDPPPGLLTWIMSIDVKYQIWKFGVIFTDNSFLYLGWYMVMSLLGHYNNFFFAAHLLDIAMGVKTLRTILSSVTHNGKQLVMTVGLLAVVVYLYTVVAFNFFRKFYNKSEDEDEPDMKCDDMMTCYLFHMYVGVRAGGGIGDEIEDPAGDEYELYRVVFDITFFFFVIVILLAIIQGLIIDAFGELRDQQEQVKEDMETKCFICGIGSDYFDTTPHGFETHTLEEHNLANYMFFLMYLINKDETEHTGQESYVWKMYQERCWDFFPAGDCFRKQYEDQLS

piglet diaphragm (VIDD) = experiment: Trans-diaphragmatic pressure (Pdi)-frequency relationship after 72 hours of mechanical ventilation in piglets; type: in vivo; settings: for prevention of VIDD in porcine model: general statement, piglets
Experimental: As previously described^18,25, twelve piglets (15-20 kg) were separated in two groups of six animals/each. In both groups, oxygenation was maintained with a fraction of inspired oxygen (FIO2) ranging from 25 to 35%, tidal volume between 10 and 12 ml·kg^−1 body weight and breathing frequency from 15 to 30 cycles/min to maintain normocapnia. In the first group (MV group), piglets were mechanically ventilated using CMV, with a positive end-expiratory pressure level at 5 cm H2O. The absence of spontaneous breathing was verified on the ventilator trend graphs, and the diaphragm electromyographic activity was measured to ensure the absence of diaphragm electrical activity. In the second group (control group), piglets were ventilated using ASV, with settings in phase with the piglet body weight (inspiratory flow trigger at 0.3 L·min^−1, percentage of mechanical ventilation between 100 and 150%, positive end-expiratory pressure level at 5 cm H2O, and expiratory trigger at 25% of the peak inspiratory flow). The diaphragm electromyographic activity was assessed to verify that piglets could breathe spontaneously. Both groups received the same care, except for the MV mode.
Briefly, piglets were anesthetized by intravenous injection of 5-6 mg kg^−1 pentobarbital sodium, intubated with a cuffed endotracheal tube and mechanically ventilated (Galileo®; Hamilton Medical AG, Rhazuns, Switzerland). Anesthesia was maintained with continuous intravenous infusion of 15-20 mg·kg^−1 propofol, 0.1-0.3 mg·kg^−1 midazolam and 3-4 mg·kg^−1·h^−1 ketamine. The level of sedation was monitored by using a bispectral index system (BIS®; Aspect, Norwood, MA). Heating pads were employed, as needed, to maintain the normal body temperature of 38.5-39.5 °C. […]
Arterial carbon dioxide pressure was monitored using a capnograph (Deltatrac®; Datex-Ohmeda, Helsinki, Fin-land) and verified by arterial blood gas analysis (iSTAT®; Abbott, Abbott Park, IL). […]
The diaphragm contractile function was assessed in vivo by measuring the transdiaphragmatic pressure (Pdi)^18. […]

prostanoid receptors = experiment: In vitro binding assay on prostanoid receptors (agonist or antagonist effect); settings: effects higher than 50% considered significant
Text: Prostaglandin (or prostanoid) receptors represent a family of cell surface membrane receptors known to bind and respond principally to metabolites of the polyunsaturated fatty acid (PUFA), arachidonic acid. As some of them are known to modulate cAMP production or intracellular calcium concentration, and based on the chemical structure of neuroprostanes (i.e DHA derivatives), the inventors performed an in vitro binding assay to specifically evaluate the potential agonist or antagonist effect of VB558 on established prostanoid receptors. Results showing an inhibition (or stimulation for assays run in basal conditions) higher than 50% are considered to represent significant effects of the test compounds.

[2] = Pharmacokinetic study in pigs, plasmatic concentration after IV bolus; type: in vivo, piglets; settings: single IV bolus 0.250 mg·kg^−1, 3 pigs
Experimental: In a first set of experiment, a pharmacokinetic study was performed on 3 control pig injected with a single bolus of VB558 (0.250 mg·kg^−1). Blood samples were collected every regularly during 12 hours to evaluate the plasmatic concentration of VB558. […] In order to test the preventing effect of VB558 in the piglet model, the protocol of IV injection was slightly adapted to the duration of the mechanical ventilation (i.e 72 hours). The inventors injected a bolus of 0.250 mg·kg^−1 then a maintenance dose of 0.025 mg·kg^−1 every 12 hours (FIG. 5B). The VB558 group was compared to a group of piglets (placebo) receiving the same amount of solvent (methanol) (FIG. 5B).

SMILES | distribution of fiber type (slow vs fast) [1] | muscle fibre atrophy / cross section area (CSA) [1] | RyR2 mediated Ca2+-leak in cardiomyocytes (RyR2; previous study [30]) | cardiac anti-arrhythmic effect, RyR2 stabilization (RyR2; previously reported (ref. 21)) | Ca2+-sparks frequency / RyR1-dependent leaky behavior (RyR1) | prevention of VIDD in porcine model (piglet diaphragm (VIDD)) | significant effect (inhibition or stimulation higher than 50%) at prostanoid receptors (prostanoid receptors) | Tmax ([2]; pig, plasma, 0.25 mg/kg, read-out: time of plasmatic peak) [min] | biodistribution [2] | dissipation of plasmatic peak [2] | reduction of trans-diaphragmatic pressure (Pdi) / VIDD in piglets (piglet diaphragm (VIDD); IV bolus 0.250 mg·kg^−1 then 0.025 mg·kg^−1 every 12 hours, 72 h MV)
CC/C=C\C/C=C\C/C=C\C[C@@H]1[C@H](/C=C/C(O)CCC(=O)O)[C@@H](O)C[C@H]1O (mixture of isomers) [Compound 4F4t-NeuroP, 4(RS)-4-F4t-Neuroprostane] | without changing the distribution of fiber type | prevents diaphragm muscle fibres atrophy after 12 hours of mechanical ventilation independently of the fibre phenotype; also recorded: prevents the reduction of cross section area (CSA), independently of the muscle fiber phenotype | able to prevent RyR2 mediated Ca^2+-leak in cardiomyocytes | the active molecule was not DHA itself but a non-enzymatic metabolite of DHA | full prevention of this RyR1-dependent leaky behavior | prevent with a high efficiency VIDD |  |  |  |  | 
CC/C=C\C[C@@H]1[C@H](/C=C/C(O)CCC(=O)O)[C@@H](O)C[C@H]1O (mixture of isomers) [VB558, (E)-6-((1S,2R,3R,5S)-3,5-dihydroxy-2-((Z)-pent-2-en-1-yl)cyclopentyl)-4-hydroxyhex-5-enoic Acid] |  |  |  |  |  | prevent with a high efficiency VIDD | not observed at any of the receptors studied | 5 to 10 | fast biodistribution | dissipated rapidly within an hour | prevents VIDD in piglets after 72 hours of ventilation; also recorded: fully prevented
